{"source": "patent US20110166192A1", "about": "“PROCESS FOR CHARGING A POLYMERIC PRODUCT WITH ATTRIBUTE IMPARTING AGENT(S)” (ADITYA BIRLA SCIENCE & TECHNOLOGY CO. LTD., priority 2008, published 2011)", "test_system": "Staphylococcus Aureus bacteria strain ATCC 6538", "test": "Sustained/control release of anti-bacterial agent from the polymeric product at various temperatures, AATCC 147 zone of inhibition (FIG. 2)", "assay_type": "cell-based", "settings": "polymeric product containing reservoir (melting range of 35-65° C.) with triclosan, 24 hr contact time", "method": "The activity of an anti-bacterial agent in the polymeric product was conducted by Qualitative AATCC 147 method. The test was conducted with Staphylococcus Aureus bacteria strain ATCC 6538. Observation of growth under the specimen accompanied with no zone of inhibition was considered as No (i.e. failed test with no anti-bacterial activity) and no growth under the specimen, with or without zone of inhibition was considered as Yes (passed test with anti-bacterial activity).\nAlso the polymeric product containing reservoir (melting range of 35-65° C.) was incorporated with triclosan as anti-bacterial ingredient. The product was washed and dried at ambient temperature of 20° C. after which the fabric was maintained at said temperature for 30 minutes and measured for efficacy. Anti-bacterial analysis was done based on AATCC 147 with 24 hr contact time and the zone of inhibition (in mm) was measured. The sustained/control release of an anti-bacterial agent in the polymeric product was studied at various temperatures. The results are displaced in FIG. 2 of accompanying drawings.", "data": [{"smiles": "Oc1cc(Cl)ccc1Oc1ccc(Cl)cc1Cl", "note": "[triclosan, 5-chloro-2-(2,4-dichlorophenoxy)phenol]", "values": [{"measurement": "release profile of anti-bacterial agent (zone of inhibition)", "value": "sustained/control release profile with temperature"}]}]}
